Columns and labels:
[1] = target: T1, cysteine-34 of human serum albumin (Homo sapiens, UniProt P02768); test: Binding specificity to cysteine-34 of human serum albumin in human plasma (HIC); assay type: in vitro ADME; conditions: 5 minutes at 37° C.
T1 construct: from tissue; host or cells: human plasma (frozen, thawed, filtered)
Description: The albumin-binding auristatin-Sulf07 derivatives were reconstituted in 50 mM sodium phosphate buffer pH 7.6 and 5% sucrose which contained 2-HPβCD. 2% HPβCD concentration was used to reconstitute the AE-Keto-Sulf07 and 4% for the AE-Ester-Sulf07 respectively. Both drugs were reconstituted at a concentration of 1 mg/mL (AE-Ester-Sulf07 780 μM, AE-Keto-Sulf07 880 μM).
Human plasma was removed from −80° C. storage and allowed to reach room temperature. The thawed plasma was spun down at 13.6 kRPM for 60 seconds, the supernatant was filtered through filter needle (5 μm) and subsequently through a 0.45 μm CA membrane. 180 μL of the appropriate plasma was used for each binding experiment. The plasma was incubated at 37° C. using an Eppendorf Thermomixer C. After 30 minutes incubation 20 μL of the appropriate albumin-binding auristatin-Sulf07 derivative was added. The albumin-binding drug was allowed to react in the plasma for 5 minutes at 37° C. After 5 minutes the solution was analyzed directly by HPLC hydrophobic interaction chromatography (HIC, method 6, 250 nm) to confirm the site specific conjugation to albumin and formation of the albumin drug conjugate.

[2] = target: T2, albumin in rat plasma (Rattus norvegicus, UniProt P02770); test: Binding kinetics to albumin in rat plasma; assay type: in vitro ADME, Sprague Dawley rat; conditions: 37° C.
T2 construct: CD1 murine plasma and Sprague Dawley rat plasma were removed from −80° C. storage; from tissue; host or cells: Sprague Dawley rat plasma (frozen, thawed, filtered)
Description: CD1 murine plasma and Sprague Dawley rat plasma were removed from −80° C. storage and allowed to reach room temperature. The thawed plasma was spun down at 13.6 kRPM for 60 seconds, the supernatant was filtered through a filter needle (5 μm) and subsequently through a 0.45 μm CA membrane.
(§1) All binding experiments were carried out in triplicate. The plasma was incubated at 37° C. using an Eppendorf Thermomixer C. After 30 minutes incubation 40 μL of the appropriate albumin-binding auristatin-Sulf07 derivative was dissolved in its reconstitution solution and added to the plasma. Samples (40 μL) were taken after 15 seconds, 2 minutes, 4 minutes, 8 minutes and 15 minutes (5 samples).
(§2) The samples were immediately added to 160 μL of acetonitrile (containing 4 μg/mL of 'MMAE as an internal standard) and vortexed for 1 minute.
(§3) The solutions were pipetted into an Impact plasma precipitation plate (shaken for 60 seconds) and filtered by vacuum onto a 96 well plate. Remaining drug was determined by LCMS quantification (method 5, 30 μL injection) using MRM MS2 negative mode (multiple reaction monitoring). Parent ions: auristatin F (Mass-744.8), AE-Keto-Sulf07 (Mass-1135.1) and AE-Ester-Sulf07 (Mass-1283.2). Percentage of binding was determined by comparing the AUC for AE-Keto-Sulf07 and AE-Ester-Sulf07 to calibration curves generated by LCMS for each compound.

[3] = test system: human ovarian carcinoma model A2780; test: Human ovarian carcinoma model A2780, small tumors; assay type: in vivo, NMRI nude mice
Description: Feed and water were provided ad libitum. […] Identification used: ear mark and cage labels. […] Tumor volumes were calculated according to the following equation: […]
The evaluation of auristatin E and the albumin-binding auristatin E derivative AE-Keto-Sulf07 in a human ovarian carcinoma model A2780 was carried out as described in the general procedure for cell-line-derived xenograft models.
The evaluation of the albumin-binding auristatin E derivative AE-Ester-Sulf07 in a human ovarian carcinoma model A2780 was carried out as described in the general procedure for cell-line-derived xenograft models.
AE-Ester-Sulf07 was also tested in the same ovarian carcinoma model A2780 with smaller tumors and a different dosing scheme to diminish the side effects of the drug on the skin of the mice. AE-Ester-Sulf07 was dosed at 3.8 mg/kg four times once weekly, showing again a statistically significant improved antitumor effect compared to the control (p<0.01 from day 7 to 14). Mice treated with AE-Ester-Sulf07 in the new dosing regimen achieved partial remission from day 12 until day 35 and complete remission from day 39 until the end of the study on day 70.

[4] = target: T3, albumin in human plasma (Homo sapiens, UniProt P02768); test: Binding kinetics to albumin in human plasma; assay type: in vitro ADME; conditions: 37° C.
T3 construct: the plasma was separated from the red blood cells by spinning it down for 3 minutes at 3000 RPM; from tissue; host or cells: fresh plasma of a healthy human volunteer
Description: Whole blood was taken from a healthy human volunteer (EDTA collection tube), the plasma was separated from the red blood cells by spinning it down for 3 minutes at 3000 RPM. The plasma was then used directly, within 2 hours of the blood donation. 360 μL of the appropriate plasma was used for each binding experiment.
as §1, §2, §3

[5] = test system: NSCLC xenograft model LXFA737; test: Human non-small cell lung cancer model LXFA737, small tumors; assay type: in vivo, NMRI nude mice; conditions: for p, antitumor efficacy versus auristatin E: 8 times twice weekly, day 56 and 63
Source text: Mice were kept under a 14-hour light/10-hour dark, artificial light cycle. The animals were fed with autoclaved Teklad Global 19% Protein Extruded Diet (T.2019S.12) from Envigo RMS SARL and had access to sterile filtered and acidified (pH 2.5) tap water which was changed twice weekly. Feed and water were provided ad libitum. […] Animals were routinely monitored twice daily on working days and daily on Saturdays and Sundays. Starting on day 0, animals were weighed twice a week. Relative body weights (RBW) of individual animals were calculated by dividing the individual absolute body weight on day X (BWx) by the individual body weight on the day of randomization multiplied by 100%. […] Tumor volumes were calculated according to the following equation: […]
Statistical analysis was only carried out if at least 50% of the initially randomized animals in a relevant group were still alive. Comparisons between test groups were carried out for the same days. By convention, p-values ≤0.05 indicate significance of tumor inhibition. Statistical calculations were performed using GraphPad Prism bioanalytic software (San Diego Calif. USA, www.graphpad.com).
The evaluation of auristatin E and the albumin-binding auristatin E derivative AE-Keto-Sulf07 in a human non-small cell lung cancer model LXFA737 was carried out as described in the general procedure for patient-derived xenograft models.
Sample preparation: 38 mg weighed in a 30 mL vial dissolved in 23.8 mL 50/50 tert-butanol/10 mM sodium citrate buffer, 5% sucrose—pH 6; 1.2 mL were aliquoted in 4 mL vials.
The evaluation of auristatin E and the albumin-binding auristatin E derivative AE-Ester-Sulf07 in a human non-small cell lung cancer model LXFA737 was carried out as described in the general procedure for patient-derived xenograft models.

T1 sequence (P02768 25-609): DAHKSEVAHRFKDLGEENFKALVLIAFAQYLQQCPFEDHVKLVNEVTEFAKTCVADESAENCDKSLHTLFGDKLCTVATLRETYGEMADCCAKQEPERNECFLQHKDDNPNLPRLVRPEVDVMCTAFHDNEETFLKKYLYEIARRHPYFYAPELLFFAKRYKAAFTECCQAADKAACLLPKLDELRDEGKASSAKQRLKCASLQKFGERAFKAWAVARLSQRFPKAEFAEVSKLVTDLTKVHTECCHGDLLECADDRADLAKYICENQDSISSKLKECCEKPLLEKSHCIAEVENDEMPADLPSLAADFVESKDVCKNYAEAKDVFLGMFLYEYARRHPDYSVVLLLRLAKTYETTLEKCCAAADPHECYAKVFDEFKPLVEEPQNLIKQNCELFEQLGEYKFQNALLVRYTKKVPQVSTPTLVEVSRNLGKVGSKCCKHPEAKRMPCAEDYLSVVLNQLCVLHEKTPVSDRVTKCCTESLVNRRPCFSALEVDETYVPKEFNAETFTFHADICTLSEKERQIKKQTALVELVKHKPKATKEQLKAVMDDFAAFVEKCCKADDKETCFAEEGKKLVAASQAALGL
T3 sequence (P02768 25-609): as above
T2 sequence (P02770 25-608): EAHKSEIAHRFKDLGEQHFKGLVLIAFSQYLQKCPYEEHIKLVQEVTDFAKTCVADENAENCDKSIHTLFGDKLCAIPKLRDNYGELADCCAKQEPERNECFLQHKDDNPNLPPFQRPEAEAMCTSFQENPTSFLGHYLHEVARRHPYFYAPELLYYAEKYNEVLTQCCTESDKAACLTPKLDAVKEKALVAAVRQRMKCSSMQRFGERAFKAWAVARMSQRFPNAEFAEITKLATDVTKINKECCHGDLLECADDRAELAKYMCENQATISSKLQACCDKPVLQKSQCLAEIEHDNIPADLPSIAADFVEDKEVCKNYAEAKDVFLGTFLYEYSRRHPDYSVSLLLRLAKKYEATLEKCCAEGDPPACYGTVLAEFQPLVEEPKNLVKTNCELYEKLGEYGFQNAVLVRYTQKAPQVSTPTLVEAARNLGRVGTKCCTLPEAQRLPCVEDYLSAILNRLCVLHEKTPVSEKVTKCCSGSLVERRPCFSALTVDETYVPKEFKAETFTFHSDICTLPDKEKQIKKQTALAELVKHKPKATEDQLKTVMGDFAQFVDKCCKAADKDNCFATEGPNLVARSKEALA

For “2-(2-(1-(4-(((1S,2R)-2-((2R,3R)-3-((S)-1-((3R,4R,5S)-4-((S)-2-((R)-2-(dimethylamino)-3-methylbutanamido)-N,3-dimethylbutanamido)-3-methoxy-5-methylheptanoyl)pyrrolidin-2-yl)-3-methoxy-2-methylpropanamido)-1-phenylpropoxy)carbonyl)phenyl)ethylidene)hydrazine-1-carbonyl)-5-(6-(2,5-dioxo-2,5-dihydro-1H-pyrrol-1-yl)hexanamido)benzenesulfonic acid [AE-Ester-Sulf07]”, the “specificity of binding to albumin” value [1] was “demonstrated”, the “albumin binding in plasma” value [2] was “very rapid” and the animals lost ([3]; 3.8 mg/kg four times once weekly) was “Three AE-Ester-Sulf07 treated mice showed body weight loss and had to be sacrificed on day 59”. For the same compound, the “p, antitumor effect compared to the control” value ([3]; 3.8 mg/kg four times once weekly, day 7 to 14) was under 0.01, the tumor response ([3]; 3.8 mg/kg four times once weekly, day 12 until day 35) was “partial remission (partial remission >10-50%)” and the tumor response ([3]; 3.8 mg/kg four times once weekly, day 39 until end of study on day 70) was “complete remission (complete remission <10%)”. The “albumin binding in plasma” value [4] was “very rapid”, the animals lost ([5]; 2.4 mg/kg 8 times twice weekly) was “five mice had to be euthanized due to a combination of body weight loss and skin lesions” and the tumor response ([5]; 2.4 mg/kg 8 times twice weekly, reached on day 21, until end of study on day 74) was “complete tumor remission”. For the same compound, the “p, antitumor efficacy versus auristatin E” value ([5]; 2.4 mg/kg versus auristatin E 0.3 mg/kg) was under 0.05 and the tumor volume ([5]; 2.4 mg/kg, until end of study on day 74) was “unmeasurable level”.

With `CC[C@H](C)[C@@H]([C@@H](CC(=O)N1CCC[C@H]1[C@H](OC)[C@@H](C)C(=O)N[C@H](C)C(=NNC(=O)c1ccc(NC(=O)CCCCCN2C(=O)C=CC2=O)cc1S(=O)(=O)O)c1ccccc1)OC)N(C)C(=O)[C@@H](NC(=O)[C@H](C(C)C)N(C)C)C(C)C` [AE-Keto-Sulf07, 2-(2-((R)-2-((2R,3R)-3-((S)-1-((3R,4S,5S)-4-((S)-2-((S)-2-(dimethylamino)-3-methylbutanamido)-N,3-dimethylbutanamido)-3-methoxy-5-methylheptanoyl)pyrrolidin-2-yl)-3-methoxy-2-methylpropanamido)-1-phenylpropylidene)hydrazine-1-carbonyl)-5-(6-(2,5-dioxo-2,5-dihydro-1H-pyrrol-1-yl)hexanamido)benzenesulfonic acid] the “specificity of binding to albumin” value [1] was “demonstrated”, the “albumin binding in plasma” value [2] was “very rapid” and the tumor response ([3]; 3.0 and 5.0 mg/kg eight times twice weekly, day 9 until end of study on day 60) was “partial remission (partial remission >10-50%)”. The “p, antitumor efficacy versus auristatin E” value ([3]; 3.0 and 5.0 mg/kg versus auristatin E 0.3 mg/kg, eight times twice weekly, day 7 to day 29) was under 0.01, the “transient body weight loss” value ([3]; 3.0 and 5.0 mg/kg, after the first treatment) was about 2% and the “tumor response (transient)” value ([3]; higher dose 5.0 mg/kg, day 25 to day 51) was “complete remission (complete remission <10%)”. The animals lost ([3]; higher dose group 5.0 mg/kg) was “One mouse from the higher dose group was found dead on day 35”, the “tumor response (transient)” value ([3]; lower dose 3.0 mg/kg, day 23 to day 35) was “complete remission (complete remission <10%)” and the animals lost ([3]; lower dose group 3.0 mg/kg) was “one from the lower dose group had to be sacrificed on day 42 for general bad conditions”. The “albumin binding in plasma” value [4] was “very rapid”, the tumor response ([5]; 4.5 mg/kg 8 times twice weekly, reached on day 28, until end of study on day 74) was “complete tumor remission” and the “p, antitumor efficacy versus auristatin E” value ([5]; 4.5 mg/kg (polysorbate 80 and 2-HPßCD buffers) versus auristatin E 0.3 mg/kg) was under 0.01. For the same compound, the animals lost ([5]; 4.5 mg/kg administered in polysorbate 80) was “two mice had to be sacrificed for general bad conditions”, the “maximum body weight loss” value ([5]; 4.5 mg/kg in 2-HPßCD, day 32) was −7% and the tumor volume ([5]; 4.5 mg/kg, until end of study on day 74, independently of the buffer) was “unmeasurable level”.

`CC[C@H](C)[C@@H]([C@@H](CC(=O)N1CCC[C@H]1[C@H](OC)[C@@H](C)C(=O)N[C@H](C)[C@@H](O)c1ccccc1)OC)N(C)C(=O)[C@@H](NC(=O)[C@H](C(C)C)N(C)C)C(C)C` [auristatin E] was tested, and the antitumor effect ([3]; 0.3 mg/kg eight times twice weekly) was “did not achieve any antitumor effect” and the tumor response ([5]; 0.3 mg/kg 8 times twice weekly, temporarily, day 21 to day 42) was “stable disease (stable disease >75-125%)”.

From patent publication US11377473B2, “Albumin-binding prodrugs of auristatin E derivatives” (priority 2017, dated 2022)
